Assay results: patent publication US8546343B2, “Aminoglycoside antibiotics targeting bacterial 16S ribosomal RNA” (Eidgenoessische Technische Hochschule Zurich, priority 2007, dated 2013)

How the values were obtained:
Format in all cases: cell-based, Mycobacterium smegmatis
[1] = system: M. smegmatis ΔrrnB 1491C (16S rRNA position 1491 C, eukaryotic mitochondrial ribosome); assay: MIC, recombinant M. smegmatis with mutant ribosomes 1491C; details: M. smegmatis ΔrrnB 1491C mutant ribosomes; 72 h at 37° C.
From the text: (§1) The strain used for introduction/selection of mutational alterations was a genetically modified derivative of Mycobacterium smegmatis carrying a single functional chromosomal rRNA operon (Sander et al. Mol. Microbiol. 1996, 22: 841-848). This strain, termed M. smegmatis rrn^−, allowed for the selection of mutational rRNA gene alterations using a plasmid carrying the rRNA gene with the respective mutational alteration.)
(§2) The rRNA gene carried on the plasmid encodes either the complete rRNA operon (Prammananan et al. Antimicrob. Agents Chemother. 1999, 43: 447-453) or a non-functional rRNA gene fragment of approximately 1.0 kb (Pfister et al. Antimicrob. Agents Chemother. 2003, 47: 1496-1502). PCR-mutagenesis in vitro was used to generate the mutagenized rRNA gene fragment. In the case of a partial rRNA gene fragment the mutagenized rRNA gene fragment was cloned into vectors pMV261 or pMV361 (Sander et al. Mol. Microbiol. 2002, 46: 1295-1304; Pfister et al. Antimicrob. Agents Chemother. 2003, 47: 1496-1502) to result in vectors carrying a partial rRNA gene fragment of approximately 1.0 kb with the mutational alteration introduced. In the case of plasmids carrying the complete rRNA operon the mutagenized rRNA gene fragment obtained by PCR was cloned into vectors pMV361 rRNA or pMV261 rRNA using appropriate restriction sites (Prammananan et al. Antimicrob. Agents Chemother. 1999, 43: 447-453). Vectors pMV361 rRNA and pMV261 rRNA carried a complete copy of the rRNA operon from M. smegmatis (Sander et al. Mol. Microbiol. 1997, 26: 469-480). Introduction of mutations into the plasmid encoded rRNA was confirmed by sequencing.
(§3) The single rRNA allelic derivative of M. smegmatis, i.e. M. smegmatis rrn, was used for transformation of the plasmids. The strain was made electro-competent and transformed according to standard techniques and as described previously (Sander et al. Mol. Microbiol. 1997, 26: 469-484). Following primary selection, the plasmid-encoded mutational rRNA gene alteration was transferred into the single chromosomal rRNA operon by means of RecA-mediated homologous recombination (Prammananan at al. Antimicrob. Agents Chemother. 1999, 43: 447-453). Introduction of the mutational rRNA gene alteration into the single functional chromosomal rRNA operon by gene conversion was confirmed by sequence determination.
(§4) Ribosomal drug susceptibility was studied by determining the minimal inhibitory concentrations, as described in detail in Pfister et al. 2003 and 2005 (see above).
(§5) The recombinants carrying the respective mutational alterations in the functional rRNA operon were colony-purified and subjected to determinations of minimal inhibitory concentrations (MIC) to determine ribosomal drug susceptibility. Cultures from single colonies were grown in LB medium supplemented with 0.05% Tween 80 and used for MIC tests in a microtiter plate format. Starting cultures contained 200 μl of bacterial cells at an optical density of 0.025 at 600 nm, and the respective drug was added in twofold series of dilution.
(§6) Key nucleotides which distinguish the prokaryotic from the eukaryotic decoding site are 16S rRNA positions 1408 (bacterial ribosome: A, eukaryotic cytosolic ribosomes: G) and 1491 (bacterial ribosomes: G, eukaryotic cytosolic ribosomes: A, eukaryotic mitochondrial ribosome: C).

[2] = system: M. smegmatis ΔrrnB (bacterial ribosomes); assay: MIC, recombinant M. smegmatis with bacterial (wild-type) ribosomes; details: 72 h at 37° C.
From the text: as §1, §2, §3, §4, §5, §6

[3] = system: M. smegmatis ΔrrnB 1491A (16S rRNA position 1491 A, eukaryotic cytosolic ribosomes); assay: MIC, recombinant M. smegmatis with mutant ribosomes 1491A; details: M. smegmatis ΔrrnB 1491A mutant ribosomes; 72 h at 37° C.
From the text: as §1, §2, §3, §4, §5, §6

[4] = system: M. smegmatis ΔrrnB 1408G (16S rRNA position 1408 G, eukaryotic cytosolic ribosomes); assay: MIC, recombinant M. smegmatis with mutant ribosomes 1408G; details: M. smegmatis ΔrrnB 1408G mutant ribosomes; 72 h at 37° C.
From the text: as §1, §2, §3, §4, §5, §6

NC[C@@H]1O[C@H](O[C@H]2[C@@H](O)[C@H](O[C@@H]3[C@@H](O)[C@H](N)C[C@H](N)[C@H]3O[C@H]3O[C@@H]4COC(c5ccco5)O[C@H]4[C@H](O)[C@H]3N)O[C@@H]2CO)[C@H](N)[C@@H](O)[C@@H]1O (stereo partly shown) [Compound 5.21, 4′,6′-O-2-Furanylideneparomomycin]
minimal inhibitory concentrations ΔrrnB 1491C [1]: >512 µg/mL
minimal inhibitory concentrations ΔrrnB [2]: 8 to 16 µg/mL
minimal inhibitory concentrations ΔrrnB 1491A [3]: >512 µg/mL
minimal inhibitory concentrations ΔrrnB 1408G [4]: >512 µg/mL

NC[C@@H]1O[C@H](O[C@H]2[C@@H](O)[C@H](O[C@@H]3[C@@H](O)[C@H](N)C[C@H](N)[C@H]3O[C@H]3O[C@@H]4CO[C@@H](c5ccc([N+](=O)[O-])cc5)O[C@H]4[C@H](O)[C@H]3N)O[C@@H]2CO)[C@H](N)[C@@H](O)[C@@H]1O [Compound 5.6, 4′,6′-O-p-Nitrobenzylideneparomomycin]
minimal inhibitory concentrations ΔrrnB 1491C [1]: >512 µg/mL
minimal inhibitory concentrations ΔrrnB [2]: 4 µg/mL
minimal inhibitory concentrations ΔrrnB 1491A [3]: >512 µg/mL
minimal inhibitory concentrations ΔrrnB 1408G [4]: 512 µg/mL

CC(=O)O.CC(=O)O.CC(=O)O.NC[C@@H]1O[C@H](O[C@H]2[C@@H](O)[C@H](O[C@@H]3[C@@H](O)[C@H](N)C[C@H](N)[C@H]3O[C@H]3O[C@@H]4COC(c5cccc([N+](=O)[O-])c5)O[C@H]4[C@H](O)[C@H]3N)O[C@@H]2CO)[C@H](N)[C@@H](O)[C@@H]1O (stereo partly shown) [Compound 5.7, 4,6′-O-m-Nitrobenzylideneparomomycin triacetate]
minimal inhibitory concentrations ΔrrnB 1491C [1]: >512 µg/mL
minimal inhibitory concentrations ΔrrnB [2]: 2 to 4 µg/mL
minimal inhibitory concentrations ΔrrnB 1491A [3]: 256 µg/mL
minimal inhibitory concentrations ΔrrnB 1408G [4]: 256 to 512 µg/mL

COc1ccc(COC2C(CO)OC(OC3C(N)CC(N)C(O)C3OC3OC(CO)C(OC4OC(CN)C(O)C(O)C4N)C3O)C(N)C2O)cc1 (stereo not shown) [Compound 19e, 4′-p-Methoxybenzylparomomycin]
minimal inhibitory concentrations ΔrrnB 1491C [1]: >512 µg/mL
minimal inhibitory concentrations ΔrrnB [2]: 8 µg/mL
minimal inhibitory concentrations ΔrrnB 1491A [3]: >512 µg/mL
minimal inhibitory concentrations ΔrrnB 1408G [4]: >512 µg/mL

NC[C@@H]1O[C@H](O[C@H]2[C@@H](O)[C@H](O[C@@H]3[C@@H](O)[C@H](N)C[C@H](N)[C@H]3O[C@H]3O[C@@H]4CO[C@@H](c5ccccc5[N+](=O)[O-])O[C@H]4[C@H](O)[C@H]3N)O[C@@H]2CO)[C@H](N)[C@@H](O)[C@@H]1O [Compound 5.16, 4′,6′-O-o-Nitrobenzylideneparomomycin]
minimal inhibitory concentrations ΔrrnB 1491C [1]: >512 µg/mL
minimal inhibitory concentrations ΔrrnB [2]: 4 to 16 µg/mL
minimal inhibitory concentrations ΔrrnB 1491A [3]: 512 µg/mL
minimal inhibitory concentrations ΔrrnB 1408G [4]: 512 µg/mL

NC[C@@H]1O[C@H](O[C@H]2[C@@H](O)[C@H](O[C@@H]3[C@@H](O)[C@H](N)C[C@H](N)[C@H]3O[C@H]3O[C@H](CO)[C@@H](OCc4ccc(C(F)(F)F)cc4)[C@H](O)[C@H]3N)O[C@@H]2CO)[C@H](N)[C@@H](O)[C@@H]1O [Compound 19b, 4′-p-(trifluoromethyl)benzylparomomycin]
minimal inhibitory concentrations ΔrrnB 1491C [1]: ≧512 μg/ml
minimal inhibitory concentrations ΔrrnB [2]: 8 µg/mL
minimal inhibitory concentrations ΔrrnB 1491A [3]: >512 µg/mL
minimal inhibitory concentrations ΔrrnB 1408G [4]: >512 µg/mL

NCC1OC(OC2C(CO)OC(OC3C(O)C(N)CC(N)C3OC3OC(COCc4ccccc4)C(O)C(O)C3N)C2O)C(N)C(O)C1O (stereo not shown) [Compound 15, 6′-O-Benzylparomomycin]
minimal inhibitory concentrations ΔrrnB 1491C [1]: >512 µg/mL
minimal inhibitory concentrations ΔrrnB [2]: 32 to 64 µg/mL
minimal inhibitory concentrations ΔrrnB 1491A [3]: >512 µg/mL
minimal inhibitory concentrations ΔrrnB 1408G [4]: >512 µg/mL

CC(=O)O.CC(=O)O.CC(=O)O.CC(=O)O.COc1cccc(C2OCC3OC(OC4C(N)CC(N)C(O)C4OC4OC(CO)C(OC5OC(CN)C(O)C(O)C5N)C4O)C(N)C(O)C3O2)c1 (stereo not shown) [Compound 5.3, 4′,6′-O-m-Methoxybenzylideneparomomycin tetraacetate]
minimal inhibitory concentrations ΔrrnB 1491C [1]: >512 µg/mL
minimal inhibitory concentrations ΔrrnB [2]: 4 to 8 µg/mL
minimal inhibitory concentrations ΔrrnB 1491A [3]: 512 µg/mL
minimal inhibitory concentrations ΔrrnB 1408G [4]: 256 to 512 µg/mL

NC[C@@H]1O[C@H](O[C@H]2[C@@H](O)[C@H](O[C@@H]3[C@@H](O)[C@H](N)C[C@H](N)[C@H]3O[C@H]3O[C@@H]4CO[C@@H](C5CCCCC5)O[C@H]4[C@H](O)[C@H]3N)O[C@@H]2CO)[C@H](N)[C@@H](O)[C@@H]1O [Compound 5.27, 4′,6′-O-Cyclohexylmethylideneparomomycin]
minimal inhibitory concentrations ΔrrnB 1491C [1]: >512 µg/mL
minimal inhibitory concentrations ΔrrnB [2]: 32 to 64 µg/mL
minimal inhibitory concentrations ΔrrnB 1491A [3]: >512 µg/mL
minimal inhibitory concentrations ΔrrnB 1408G [4]: >512 µg/mL

NC[C@@H]1O[C@H](O[C@H]2[C@@H](O)[C@H](O[C@@H]3[C@@H](O)[C@H](N)C[C@H](N)[C@H]3O[C@H]3O[C@@H]4CO[C@@H](c5ccc(F)cc5)O[C@H]4[C@H](O)[C@H]3N)O[C@@H]2CO)[C@H](N)[C@@H](O)[C@@H]1O [Compound 5.12, 4,6′-O-p-Fluorobenzylideneparomomycin]
minimal inhibitory concentrations ΔrrnB 1491C [1]: >512 µg/mL
minimal inhibitory concentrations ΔrrnB [2]: 2 to 4 µg/mL
minimal inhibitory concentrations ΔrrnB 1491A [3]: >512 µg/mL
minimal inhibitory concentrations ΔrrnB 1408G [4]: >512 µg/mL

NC[C@@H]1O[C@H](O[C@H]2[C@@H](O)[C@H](O[C@@H]3[C@@H](O)[C@H](N)C[C@H](N)[C@H]3O[C@H]3O[C@@H]4CO[C@@H](c5cccc6ccccc56)O[C@H]4[C@H](O)[C@H]3N)O[C@@H]2CO)[C@H](N)[C@@H](O)[C@@H]1O [Compound 5.19, 4′,6′-O-1-Naphthylideneparomomycin]
minimal inhibitory concentrations ΔrrnB 1491C [1]: 256 µg/mL
minimal inhibitory concentrations ΔrrnB [2]: 4 to 8 µg/mL
minimal inhibitory concentrations ΔrrnB 1491A [3]: 256 to 512 µg/mL
minimal inhibitory concentrations ΔrrnB 1408G [4]: 512 µg/mL

NC[C@@H]1O[C@H](O[C@H]2[C@@H](O)[C@H](O[C@@H]3[C@@H](O)[C@H](N)C[C@H](N)[C@H]3O[C@H]3O[C@@H]4CO[C@@H](c5ccc(-c6ccccc6)cc5)O[C@H]4[C@H](O)[C@H]3N)O[C@@H]2CO)[C@H](N)[C@@H](O)[C@@H]1O [Compound 5.11, 4′,6′-O-p-Phenylbenzylideneparomomycin]
minimal inhibitory concentrations ΔrrnB 1491C [1]: 64 µg/mL
minimal inhibitory concentrations ΔrrnB [2]: 64 µg/mL
minimal inhibitory concentrations ΔrrnB 1491A [3]: 64 to 128 µg/mL
minimal inhibitory concentrations ΔrrnB 1408G [4]: 128 µg/mL

N#Cc1ccc([C@@H]2OC[C@H]3O[C@H](O[C@H]4[C@H](O[C@@H]5O[C@H](CO)[C@@H](O[C@H]6O[C@@H](CN)[C@@H](O)[C@H](O)[C@H]6N)[C@H]5O)[C@@H](O)[C@H](N)C[C@@H]4N)[C@H](N)[C@@H](O)[C@@H]3O2)cc1 [Compound 5.10, 4,6′-O-p-Cyanobenzylideneparomomycin]
minimal inhibitory concentrations ΔrrnB 1491C [1]: >512 µg/mL
minimal inhibitory concentrations ΔrrnB [2]: 16 to 32 µg/mL
minimal inhibitory concentrations ΔrrnB 1491A [3]: >512 µg/mL
minimal inhibitory concentrations ΔrrnB 1408G [4]: >512 µg/mL
